Here are results for 17 compounds from publication PMC2641037 (Pharmacogenetics and genomics, 2009).

Structures can show the parent of a compound that is named as a salt. Where two headings read alike, the source gives them in different places.

Broadly, the pKa is the negative logarithm of the acid dissociation constant.

Series [1] deals with Caco-2 cells. Conditions: for Papp±SD of montelukast (% of control) / effect on permeability of montelukast: 125 µM competitor; for Papp±SD of montelukast (% of control) / montelukast permeability, % of control: Caco-2; for Papp±SD of montelukast (% of control): control without additional drug; for effect on permeability of montelukast: Caco-2, p<0.05. A general note: Caco-2 cells form a polarised layer with tight junctions and transporters.

In series [2] the target is T1, OATP2B1 (Homo sapiens, UniProt O94956).
T1 sequence (O94956 1-709): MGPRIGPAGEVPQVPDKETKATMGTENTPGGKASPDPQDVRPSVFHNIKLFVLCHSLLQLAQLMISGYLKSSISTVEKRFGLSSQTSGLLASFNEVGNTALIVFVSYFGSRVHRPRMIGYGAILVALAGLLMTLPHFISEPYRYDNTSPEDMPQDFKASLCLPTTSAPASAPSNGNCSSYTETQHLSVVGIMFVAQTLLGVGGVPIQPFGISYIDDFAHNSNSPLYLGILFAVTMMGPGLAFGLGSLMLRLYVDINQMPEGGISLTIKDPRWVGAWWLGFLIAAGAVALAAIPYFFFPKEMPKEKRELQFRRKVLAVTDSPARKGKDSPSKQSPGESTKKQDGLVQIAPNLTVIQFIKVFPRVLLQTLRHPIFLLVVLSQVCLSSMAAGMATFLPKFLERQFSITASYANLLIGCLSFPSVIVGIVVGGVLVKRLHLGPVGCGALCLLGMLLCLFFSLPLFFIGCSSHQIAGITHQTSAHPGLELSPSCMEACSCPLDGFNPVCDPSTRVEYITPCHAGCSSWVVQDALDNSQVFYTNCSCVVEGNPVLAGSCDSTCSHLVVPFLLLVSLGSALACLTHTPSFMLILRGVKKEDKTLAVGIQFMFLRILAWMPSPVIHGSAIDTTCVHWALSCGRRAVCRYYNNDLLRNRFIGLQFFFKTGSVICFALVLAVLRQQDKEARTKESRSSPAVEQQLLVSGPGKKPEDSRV
Put plainly: Permeability in OATP2B1 expressing MDCKII cell line. The following applies: basolateral → apical, pH 7.5, 1 h 37°C.

For series [3] the following is noted: can approach; cited from earlier work.
Series [4] deals with MDR1 (Homo sapiens, UniProt P08183). The experiment in a line: ATP consumption by membrane preparations containing MDR1. The format is biochemical. The following applies: data not shown.
For series [5] the following is noted: weak acid; cited from earlier work.
For series [6] the following is noted: cited from earlier work.
Series [7] deals with OATP2B1. The following applies: up; substrate dependent; cited from earlier work.

MDR1, sequence (P08183 whole entry, species assumed): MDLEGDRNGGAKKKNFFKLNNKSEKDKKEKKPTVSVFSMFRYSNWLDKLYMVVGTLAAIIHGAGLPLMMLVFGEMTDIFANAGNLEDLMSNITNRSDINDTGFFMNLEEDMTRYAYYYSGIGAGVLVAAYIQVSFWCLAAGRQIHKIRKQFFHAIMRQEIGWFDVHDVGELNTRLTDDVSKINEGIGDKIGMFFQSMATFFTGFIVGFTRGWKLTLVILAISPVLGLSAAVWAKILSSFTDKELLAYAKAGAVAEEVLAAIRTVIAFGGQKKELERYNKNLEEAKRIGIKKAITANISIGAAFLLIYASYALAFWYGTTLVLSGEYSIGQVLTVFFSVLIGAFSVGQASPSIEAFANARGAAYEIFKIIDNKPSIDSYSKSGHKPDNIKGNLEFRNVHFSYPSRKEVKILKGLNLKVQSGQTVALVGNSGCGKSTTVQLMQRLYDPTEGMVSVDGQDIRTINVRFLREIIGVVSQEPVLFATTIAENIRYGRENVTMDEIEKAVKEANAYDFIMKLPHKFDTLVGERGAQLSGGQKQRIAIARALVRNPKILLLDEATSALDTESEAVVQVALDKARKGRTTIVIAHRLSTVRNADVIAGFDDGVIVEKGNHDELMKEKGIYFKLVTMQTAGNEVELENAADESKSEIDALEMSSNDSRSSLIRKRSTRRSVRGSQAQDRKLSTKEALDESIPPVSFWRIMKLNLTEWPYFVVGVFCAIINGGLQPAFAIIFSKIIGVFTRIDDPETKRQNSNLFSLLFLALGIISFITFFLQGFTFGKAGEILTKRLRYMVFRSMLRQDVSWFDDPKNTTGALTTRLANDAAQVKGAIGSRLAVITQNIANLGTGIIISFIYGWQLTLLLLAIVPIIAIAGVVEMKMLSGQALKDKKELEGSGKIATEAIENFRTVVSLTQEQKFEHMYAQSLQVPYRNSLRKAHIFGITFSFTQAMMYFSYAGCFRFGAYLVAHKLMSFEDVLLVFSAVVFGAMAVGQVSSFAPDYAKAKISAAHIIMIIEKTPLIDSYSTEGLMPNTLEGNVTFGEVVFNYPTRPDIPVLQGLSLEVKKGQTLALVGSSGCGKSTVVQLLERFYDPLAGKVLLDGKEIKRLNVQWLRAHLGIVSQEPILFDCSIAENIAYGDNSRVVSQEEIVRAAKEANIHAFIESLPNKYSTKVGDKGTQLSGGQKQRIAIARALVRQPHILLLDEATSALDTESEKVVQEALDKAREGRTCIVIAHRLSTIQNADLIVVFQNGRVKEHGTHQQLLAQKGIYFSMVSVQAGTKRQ

On to `CCCCNc1cc(C(=O)O)cc(S(N)(=O)=O)c1Oc1ccccc1` [Bumetanide, bumetanide], for which the “Papp±SD of montelukast (% of control)” value in series [1] was 100±10 % of control.

As for `C[C@H](CCC(=O)O)[C@H]1CC[C@H]2[C@@H]3[C@H](O)C[C@@H]4C[C@H](O)CC[C@]4(C)[C@H]3CC[C@]12C` [Chenodeoxycholic acid, chenodeoxycholic acid, sodium salt], in series [1], the “Papp±SD of montelukast (% of control)” value was 90±10 % of control.

`CN/C(=N/CCSCc1nc[nH]c1C)NC#N` [Cimetidine, cimetidine]: in series [1], the “effect on permeability of montelukast” value is “enhance permeability” and the “Papp±SD of montelukast (% of control)” value is 120±10 % of control.

On to `O=S(=O)(O)c1cc(N=C=S)ccc1C=Cc1ccc(N=C=S)cc1S(=O)(=O)O` [DIDS, 4,4'-Diisothiocyanostilbene-2,2'-disulfonic acid], for which, in series [1], the “Papp±SD of montelukast (% of control)” value is 100±20 % of control.

Take `C[C@H](CCC(=O)O)[C@H]1CC[C@H]2[C@@H]3CC[C@@H]4C[C@H](O)CC[C@]4(C)[C@H]3C[C@H](O)[C@]12C` [Deoxycholic acid, deoxycholic acid, sodium salt]: the “Papp±SD of montelukast (% of control)” value in series [1] is 110±10 % of control.

For `C[C@]12CC[C@@H]3c4ccc(OS(=O)(=O)[O-])cc4CC[C@H]3[C@@H]1CCC2=O.[Na+]` [Estrone 3-sulfate, estrone 3-sulfate, sodium salt], the “enhancement of permeability in OATP2B1 expressing cell line relative to control” value in series [2] is reported as 280±40%.

Turning to `C=C(CC)C(=O)c1ccc(OCC(=O)O)c(Cl)c1Cl` [Ethacrynic acid, ethacrynic acid], the “Papp±SD of montelukast (% of control)” value in series [1] is on record as 100±10 % of control.

`Nc1nc2ncc(CNc3ccc(C(=O)N[C@@H](CCC(=O)O)C(=O)O)cc3)nc2c(=O)[nH]1` [Folic acid, folic acid]: in series [1], the “effect on permeability of montelukast” value is “enhance permeability” and the “Papp±SD of montelukast (% of control)” value is 130±20 % of control.

Turning to `NS(=O)(=O)c1cc(C(=O)O)c(NCc2ccco2)cc1Cl` [Furosemide, furosemide], in series [1], the “Papp±SD of montelukast (% of control)” value is listed as 95±8 % of control.

As to `O=c1c(-c2ccc(O)cc2)coc2cc(O)cc(O)c12` [Genistein, genistein], the “Papp±SD of montelukast (% of control)” value in series [1] was 110±10 % of control.

Consider `CN(C)C(=O)CCSC(SCCC(=O)O)c1cccc(/C=C/c2ccc3ccc(Cl)cc3n2)c1` (stereo not drawn) [MK571, MK571, sodium salt], for which, in series [1], the “effect on permeability of montelukast” value is listed as “enhance permeability” and the “Papp±SD of montelukast (% of control)” value is 130±10 % of control.

On to `CC[C@H](C)C(=O)O[C@H]1C[C@H](O)C=C2C=C[C@H](C)[C@H](CC[C@@H](O)C[C@@H](O)CC(=O)O)[C@H]21` [Pravastatin, pravastatin], for which, in series [1], the “effect on permeability of montelukast” value is “cis-inhibit permeability” and the “Papp±SD of montelukast (% of control)” value was 83±8 % of control.

Take `CCCN(CCC)S(=O)(=O)c1ccc(C(=O)O)cc1` [Probenecid, probenecid]: the “Papp±SD of montelukast (% of control)” value in series [1] was 90±10 % of control.

With `O=C1OC(c2ccc(O)c(S(=O)(=O)O)c2)(c2ccc(O)c(S(=O)(=O)O)c2)c2c(Br)c(Br)c(Br)c(Br)c21` [Sulfobromophthalein, sulfobromophthalein], in series [1], the “effect on permeability of montelukast” value was “cis-inhibit permeability” and the “Papp±SD of montelukast (% of control)” value is listed as 72±7 % of control.

In the case of `C[C@H](CCC(=O)NCCS(=O)(=O)O)[C@H]1CC[C@H]2[C@@H]3[C@H](O)C[C@@H]4C[C@H](O)CC[C@]4(C)[C@H]3C[C@H](O)[C@]12C` [Taurocholic acid, taurocholic acid, sodium salt], in series [1], the “effect on permeability of montelukast” value is recorded as “cis-inhibit permeability” and the “Papp±SD of montelukast (% of control)” value is given as 84±9 % of control.

With `CC(C)(O)c1ccccc1CC[C@@H](SCC1(CC(=O)O)CC1)c1cccc(/C=C/c2ccc3ccc(Cl)cc3n2)c1` [montelukast, Montelukast], in series [2], the “permeability in MDCKII-OATP2B1, % of control (parental MDCKII)” value was 140±20 % of control. The poor response rate in series [3] was 60 to 70%. Also, the “stimulation of ATP consumption by MDR1 membrane preparations” value in series [4] is “does not stimulate ATP consumption”. Further, the pKa in series [5] is 5.7. Also, the “binding to plasma albumin” value in series [6] is reported as “highly bound”.

Turning to `CC(=O)[C@H]1CC[C@H]2[C@@H]3CCC4=CC(=O)CC[C@]4(C)[C@H]3CC[C@]12C` [progesterone], the “allosteric activation of OATP2B1 transport of estrone-3-sulfate” value in series [7] is reported as “up to 300%”. Also, the “montelukast permeability, % of control” value in series [1] (5 µM progesterone in donor reservoir) is 150±10 % of control; in series [1] (15 µM progesterone in donor reservoir), 140±10 % of control; in series [1] (30 µM progesterone in donor reservoir) it was 160±10 % of control.
